Measurements taken from patent US20100105655A1, “NOVEL COMPOUNDS 515” (ASTRAZENECA AB, priority 2008, published 2010).

molecular target: T1, IGFR kinase (Homo sapiens, UniProt P08069); test: Enzyme assay (c), IGFR kinase, Caliper LabChip; format: biochemical; settings: 30 nM IGFR kinase, 6 uM ATP, 3 uM peptide mix; read-out: IGFR IC50
T1 construct: purchased Millipore
T1 sequence (P08069 31-1367): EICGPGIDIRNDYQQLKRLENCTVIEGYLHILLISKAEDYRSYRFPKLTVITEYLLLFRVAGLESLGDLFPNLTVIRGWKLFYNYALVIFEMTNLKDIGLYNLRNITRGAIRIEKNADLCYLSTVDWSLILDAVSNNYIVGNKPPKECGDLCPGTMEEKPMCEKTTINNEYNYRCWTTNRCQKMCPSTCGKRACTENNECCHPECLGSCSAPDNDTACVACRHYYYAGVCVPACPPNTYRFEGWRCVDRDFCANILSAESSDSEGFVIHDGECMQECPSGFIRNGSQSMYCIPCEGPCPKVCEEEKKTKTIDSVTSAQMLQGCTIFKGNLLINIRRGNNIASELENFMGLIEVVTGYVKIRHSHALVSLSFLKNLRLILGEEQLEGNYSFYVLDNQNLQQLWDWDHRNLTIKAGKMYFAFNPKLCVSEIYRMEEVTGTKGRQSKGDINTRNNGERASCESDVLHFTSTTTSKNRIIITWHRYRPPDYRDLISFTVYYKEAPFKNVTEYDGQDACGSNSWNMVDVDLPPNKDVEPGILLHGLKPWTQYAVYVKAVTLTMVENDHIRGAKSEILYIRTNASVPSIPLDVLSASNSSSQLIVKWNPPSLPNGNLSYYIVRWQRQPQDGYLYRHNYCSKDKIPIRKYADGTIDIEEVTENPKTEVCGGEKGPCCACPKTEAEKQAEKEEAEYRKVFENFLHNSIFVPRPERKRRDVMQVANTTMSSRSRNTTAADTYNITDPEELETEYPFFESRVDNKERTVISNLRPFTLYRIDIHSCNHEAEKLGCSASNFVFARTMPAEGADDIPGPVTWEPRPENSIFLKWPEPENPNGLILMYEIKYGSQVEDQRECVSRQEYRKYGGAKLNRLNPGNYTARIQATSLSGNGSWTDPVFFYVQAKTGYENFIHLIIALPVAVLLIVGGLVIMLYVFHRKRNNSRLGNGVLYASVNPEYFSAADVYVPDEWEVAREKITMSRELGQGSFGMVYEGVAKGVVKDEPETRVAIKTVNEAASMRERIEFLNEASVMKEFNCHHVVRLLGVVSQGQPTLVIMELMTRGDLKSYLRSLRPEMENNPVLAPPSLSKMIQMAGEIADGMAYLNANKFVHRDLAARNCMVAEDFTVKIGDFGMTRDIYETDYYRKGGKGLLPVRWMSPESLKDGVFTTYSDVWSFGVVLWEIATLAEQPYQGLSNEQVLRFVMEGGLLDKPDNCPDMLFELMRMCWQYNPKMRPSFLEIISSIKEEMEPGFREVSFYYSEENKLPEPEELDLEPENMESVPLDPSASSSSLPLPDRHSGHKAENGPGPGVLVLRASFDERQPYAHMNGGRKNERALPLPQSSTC

Row | IC50 [nM] | SMILES
1 | 12 | COc1cc(N2CCN(CCO)CC2)ccc1Nc1ncc(C)c(-c2cnc3ccc(F)cn23)n1 [Example 264, 2-[4-[4-[[4-(6-fluoroimidazo[1,2-a]pyridin-3-yl)-5-methyl-pyrimidin-2-yl]amino]-3-methoxy-phenyl]piperazin-1-yl]ethanol]
2 | 63 | COc1ccc(N2CCNCC2)cc1Nc1ncc(F)c(-c2cnn3ccccc23)n1 [Example 174, 5-fluoro-N-(2-methoxy-5-piperazin-1-yl-phenyl)-4-pyrazolo[1,5-a]pyridin-3-yl-pyrimidin-2-amine]
3 | 31 | COc1cc(CN2CCC(C(N)=O)CC2)ccc1Nc1ncc(Cl)c(-c2cnc3ccccn23)n1 [Example 21.7, 1-[[4-[(5-chloro-4-imidazo[1,2-a]pyridin-3-yl-pyrimidin-2-yl)amino]-3-methoxy-phenyl]methyl]piperidine-4-carboxamide]
4 | 23 | COc1cc(N2CCN(C(C)(C)CO)CC2)ccc1Nc1ncc(F)c(-c2cnc3ccc(F)cn23)n1 [Example 261, 2-[4-[4-[[5-fluoro-4-(6-fluoroimidazo[1,2-a]pyridin-3-yl)pyrimidin-2-yl]amino]-3-methoxy-phenyl]piperazin-1-yl]-2-methyl-propan-1-ol]
5 | 172 | COc1ccc(N2CCNCC2)cc1Nc1ncc(F)c(-c2cnc3ccccn23)n1 [Example 75, 5-fluoro-4-imidazo[1,2-a]pyridin-3-yl-N-(2-methoxy-5-piperazin-1-yl-phenyl)pyrimidin-2-amine]
6 | 2 | COc1cc(CC(CO)CO)ccc1Nc1ncc(Cl)c(-c2cnn3ccccc23)n1 [Example 190, 2-[[4-[(5-chloro-4-pyrazolo[1,5-a]pyridin-3-yl-pyrimidin-2-yl)amino]-3-methoxy-phenyl]methyl]propane-1,3-diol]
7 | 10 | COc1cc(N2CCN(C(=O)C3CC3)CC2)ccc1Nc1ncc(Cl)c(-c2cnc3ccccn23)n1 [Example 43, [4-[4-[(5-chloro-4-imidazo[1,2-a]pyridin-3-ylpyrimidin-2-yl)amino]-3-methoxyphenyl]piperazin-1-yl]-cyclopropylmethanone]
8 | 8 | COc1cc(N2CCN(C(=O)[C@H]3CCCCN3)CC2)ccc1Nc1ncc(Cl)c(-c2cnc3ccccn23)n1 [Example 24.1, [4-[4-[(5-chloro-4-imidazo[1,2-a]pyridin-3-yl-pyrimidin-2-yl)amino]-3-methoxy-phenyl]piperazin-1-yl]-[(2R)-2-piperidyl]methanone]
9 | 18 | COc1ccc(OC[C@@H]2CCCN2)cc1Nc1ncc(Cl)c(-c2cnc3ccccn23)n1 [Example 6.3, 5-chloro-4-imidazo[1,2-a]pyridin-3-yl-N-[2-methoxy-5-[[(2S)-pyrrolidin-2-yl]methoxy]phenyl]pyrimidin-2-amine]
10 | 4 | COc1cc(C2CCN(C(=O)CO)CC2)ccc1Nc1ncc(Cl)c(-c2cnc3cc(C)ccn23)n1 [Example 245, 1-[4-[4-[[5-chloro-4-(7-methylimidazo[1,2-a]pyridin-3-yl)pyrimidin-2-yl]amino]-3-methoxy-phenyl]-1-piperidyl]-2-hydroxy-ethanone]
11 | 11 | COc1cc(N2CC(C)N(C(C)=O)C(C)C2)ccc1Nc1ncc(Cl)c(-c2cnc3ccccn23)n1 (centres unmarked) [Example 3.31, 1-[4-[4-[(5-chloro-4-imidazo[1,2-a]pyridin-3-yl-pyrimidin-2-yl)amino]-3-methoxy-phenyl]-2,6-dimethyl-piperazin-1-yl]ethanone]
12 | 15 | COc1cc(C2CCN(C(=O)[C@@H](C)O)CC2)ccc1Nc1ncc(C)c(-c2cnn3ccccc23)n1 [Example 164, (2R)-2-hydroxy-1-[4-[3-methoxy-4-[(5-methyl-4-pyrazolo[1,5-a]pyridin-3-yl-pyrimidin-2-yl)amino]phenyl]-1-piperidyl]propan-1-one]
13 | 33 | COc1cc(N2CCN(CCO)CC2)ccc1Nc1ncc(F)c(-c2cnc3c(F)cccn23)n1 [Example 195, 2-[4-[4-[[5-fluoro-4-(8-fluoroimidazo[1,2-a]pyridin-3-yl)pyrimidin-2-yl]amino]-3-methoxy-phenyl]piperazin-1-yl]ethanol]
14 | 57 | COc1cc(C(=O)N(C)CCO)ccc1Nc1ncc(Cl)c(-c2cnc3ccccn23)n1 [Example 33, 4-[(5-chloro-4-imidazo[1,2-a]pyridin-3-yl-pyrimidin-2-yl)amino]-N-(2-hydroxyethyl)-3-methoxy-N-methyl-benzamide]
15 | 3 | COc1cc(N2CCN(C(=O)CO)CC2)ccc1Nc1ncc(Cl)c(-c2cnn3ccccc23)n1 [Example 130, 1-[4-[4-[(5-chloro-4-pyrazolo[1,5-a]pyridin-3-yl-pyrimidin-2-yl)amino]-3-methoxy-phenyl]piperazin-1-yl]-2-hydroxy-ethanone]
16 | 19 | COc1cc(CNCCO)ccc1Nc1ncc(Cl)c(-c2cnc3ccccn23)n1 [Example 21.1, 2-[[4-[(5-chloro-4-imidazo[1,2-a]pyridin-3-yl-pyrimidin-2-yl)amino]-3-methoxy-phenyl]methylamino]ethanol]

Row | IC50 [nM] | SMILES
17 | 33 | COc1cc(N2CC[C@@H](N(C)C)C2)ccc1Nc1ncc(F)c(-c2cnc3ccccn23)n1 [Example 76, N-[4-[(3R)-3-dimethylaminopyrrolidin-1-yl]-2-methoxy-phenyl]-5-fluoro-4-imidazo[1,2-a]pyridin-3-yl-pyrimidin-2-amine]
18 | 184 | COc1ccc(N2CCC(OC)CC2)cc1Nc1ncc(F)c(-c2cnc3ccccn23)n1 [Example 77, 5-fluoro-4-imidazo[1,2-a]pyridin-3-yl-N-[2-methoxy-5-(4-methoxy-1-piperidyl)phenyl]pyrimidin-2-amine]
19 | 8 | COc1cc(C2CNC(=O)C2)ccc1Nc1ncc(Cl)c(-c2cnc3ccccn23)n1 (centres unmarked) [Example 3.24, 4-[4-[(5-chloro-4-imidazo[1,2-a]pyridin-3-yl-pyrimidin-2-yl)amino]-3-methoxy-phenyl]pyrrolidin-2-one]
20 | 22 | COc1cc(CN2CC(O)C2)ccc1Nc1ncc(Cl)c(-c2cnc3ccccn23)n1 [Example 21.16, 1-[[4-[(5-chloro-4-imidazo[1,2-a]pyridin-3-yl-pyrimidin-2-yl)amino]-3-methoxy-phenyl]methyl]azetidin-3-ol]
21 | 31 | COc1cc(OC2CN(C(=O)[C@H](C)O)C2)ccc1Nc1ncc(Cl)c(-c2cnc3ccccn23)n1 [Example 27.1, (2S)-1-[3-[4-[(5-chloro-4-imidazo[1,2-a]pyridin-3-yl-pyrimidin-2-yl)amino]-3-methoxy-phenoxy]azetidin-1-yl]-2-hydroxy-propan-1-one]
22 | 5 | COc1cc(N(C)CCN(C)C(=O)CO)ccc1Nc1ncc(Cl)c(-c2cnc3c(F)cccn23)n1 [Example 220, N-[2-[4-[[5-chloro-4-(8-fluoroimidazo[1,2-a]pyridin-3-yl)pyrimidin-2-yl]amino]-3-methoxy-N-methyl-anilino]ethyl]-2-hydroxy-N-methyl-acetamide]
23 | 740 | COc1cc(N2CC3CN(C(CO)CO)CC(C2)O3)ccc1Nc1ncc(Cl)c(-c2cnn3ccccc23)n1 [Example 242, 2-[7-[4-[(5-chloro-4-pyrazolo[1,5-a]pyridin-3-yl-pyrimidin-2-yl)amino]-3-methoxy-phenyl]-9-oxa-3,7-diazabicyclo[3.3.1]nonan-3-yl]propane-1,3-diol]
24 | 41 | COc1ccc(N2CC[C@@H](O)C2)cc1Nc1ncc(Cl)c(-c2cnc3ccccn23)n1 [Example 3.18, (3R)-1-[3-[(5-chloro-4-imidazo[1,2-a]pyridin-3-yl-pyrimidin-2-yl)amino]-4-methoxy-phenyl]pyrrolidin-3-ol]
25 | 125 | COc1ccc(N2CC[C@H](N(C)C)C2)cc1Nc1ncc(Cl)c(-c2cnc3ccccn23)n1 [Example 3.17, 5-chloro-N-[5-[(3S)-3-dimethylaminopyrrolidin-1-yl]-2-methoxy-phenyl]-4-imidazo[1,2-a]pyridin-3-yl-pyrimidin-2-amine]
26 | 4 | COc1cc(C2CCN(C(=O)[C@@H](C)O)CC2)ccc1Nc1ncc(Cl)c(-c2cnc3ccc(F)cn23)n1 [Example 246, (2R)-1-[4-[4-[[5-chloro-4-(6-fluoroimidazo[1,2-a]pyridin-3-yl)pyrimidin-2-yl]amino]-3-methoxyphenyl]-1-piperidyl]-2-hydroxy-propan-1-one]
27 | 10 | COc1cc(N2CCN(CC(C)(C)O)CC2)ccc1Nc1ncc(Cl)c(-c2cnc3ccccn23)n1 [Example 52, 1-[4-[4-[(5-chloro-4-imidazo[1,2-a]pyridin-3-yl-pyrimidin-2-yl)amino]-3-methoxy-phenyl]piperazin-1-yl]-2-methyl-propan-2-ol]
28 | 10 | COc1cc(C2CCCCN2C(C)=O)ccc1Nc1ncc(Cl)c(-c2cnc3ccccn23)n1 (centres unmarked) [Example 3.25, 1-[2-[4-[(5-chloro-4-imidazo[1,2-a]pyridin-3-yl-pyrimidin-2-yl)amino]-3-methoxy-phenyl]-1-piperidyl]ethanone]
29 | 57 | COc1cc(N2CCOCC2)ccc1Nc1ncc(C)c(-c2cnc3ccccn23)n1 [Example 100, 4-imidazo[1,2-a]pyridin-3-yl-N-(2-methoxy-4-morpholino-phenyl)-5-methyl-pyrimidin-2-amine]
30 | 48 | COc1cc(N(C)CC(=O)N2CCNCC2)ccc1Nc1ncc(Cl)c(-c2cnc3c(F)cccn23)n1 [Example 227, 2-[4-[[5-chloro-4-(8-fluoroimidazo[1,2-a]pyridin-3-yl)pyrimidin-2-yl]amino]-3-methoxy-N-methyl-anilino]-1-piperazin-1-yl-ethanone]
31 | 12 | CC(=O)N1CCN(c2ccc(Nc3ncc(Cl)c(-c4cnc5ccccn45)n3)c(C)c2C)CC1 [Example 3.32, 1-[4-[4-[(5-chloro-4-imidazo[1,2-a]pyridin-3-yl-pyrimidin-2-yl)amino]-2,3-dimethyl-phenyl]piperazin-1-yl]ethanone]
32 | 5 | COc1cc(N2CCN(C(=O)[C@@H](C)O)CC2)ccc1Nc1ncc(Cl)c(-c2cnc3ccc(F)cn23)n1 [Example 255, (2R)-1-[4-[4-[[5-chloro-4-(6-fluoroimidazo[1,2-a]pyridin-3-yl)pyrimidin-2-yl]amino]-3-methoxy-phenyl]piperazin-1-yl]-2-hydroxy-propan-1-one]
